PMC9605770, “Molecular docking and antihypertensive effects of a novel angiotensin-I converting enzyme inhibitory peptide from yak bone” (Frontiers in Nutrition, 2022)
Where two headings read alike, the source gives them in different places. Each block holds one molecule with its values, some of them ahead of it. Where a SMILES comes first, the peptide text is derived from it.

What was measured:
[1] = In vitro gastrointestinal digestion of the peptide; format: in vitro ADME
Procedure: Gastrointestinal digestion was evaluated according to the method of Dang et al. ([15]) and Mulet-Cabero et al. ([18]) with minor modification. Simulated gastric juice (pH 2.0) and simulated intestinal fluid mixture (pH 7.6) were added to peptide solution and incubated at 37°C for 2 h, respectively.

[2] = test system: spontaneously hypertensive rats (SHRs); assay: Antihypertensive effect in SHRs (tail-cuff SBP); format: in vivo, rat; settings: oral, positive control group, 10 mg/kg BW, n = 6 per group
Procedure: The systolic blood pressure (SBP) changes in the SHRs were measured by the tail-cuff method to determine the antihypertensive effect of ser-ala-ser-val-ile-pro-val-ser-ala-val-arg-ala (SASVIPVSAVRA) in vivo. Twenty female SHRs, weighing 230 ± 15 g and the SBP exceeding 190 mmHg, were obtained from Beijing Vital River Laboratory Animal Technology Co., Ltd. (China).
The SHRs were free to eat and drink at 25 ± 4°C and a 40 ± 6% humidity. To get the rats to adapt to the environment, the systolic blood pressure was measured once a day for 1 week. After a week of adaptation, the SHRs were randomly divided into three groups with each group containing 6 SHRs: the control group (sterilized water), captopril group (10 mg/kg captopril BW), SASVIPVSAVRA (30 mg/kg SASVIPVSAVRA BW). The effect of ACE inhibitors on SBP were measured by the Softron BP non-invasive blood pressure monitor (Softron BP-2000, Tokyo, Japan) at 0, 2, 4, and 6 h after oral administration ([1]), The measurements were repeated five times, the recordings were reported as mean ± standard deviation (SD). All animal procedures used in this trial were approved by the Institutional Animal Care and Use Committee of Hangzhou Medical College (Approval No. ZJCLA-IACUC-20010014).

ACE = settings: read-out: IC50 of ACE inhibition, cited from earlier work
From the text: Therefore, it was meaningful to study the ACE inhibitory activity of SASVIPVSAVRA. || Generally, the presence of amino acids (Val, Ile) with hydrophobic branches would increase the ACE inhibitory activity ([26]). Therefore, the Val residue and Ile residue in SASVIPVSAVRA may contribute to the ACE activity of the peptide. […] The peptide SASVIPVSAVRA isolated from the yak bone hydrolysate also contained the tripeptide above-mentioned (VIP). The ACE inhibitory activity may also be due to the presence of ACE inhibitor VIP in its structure. Howev ...

[3] = molecular target: T1, angiotensin-converting enzyme (ACE) (UniProt P12822)
T1 sequence: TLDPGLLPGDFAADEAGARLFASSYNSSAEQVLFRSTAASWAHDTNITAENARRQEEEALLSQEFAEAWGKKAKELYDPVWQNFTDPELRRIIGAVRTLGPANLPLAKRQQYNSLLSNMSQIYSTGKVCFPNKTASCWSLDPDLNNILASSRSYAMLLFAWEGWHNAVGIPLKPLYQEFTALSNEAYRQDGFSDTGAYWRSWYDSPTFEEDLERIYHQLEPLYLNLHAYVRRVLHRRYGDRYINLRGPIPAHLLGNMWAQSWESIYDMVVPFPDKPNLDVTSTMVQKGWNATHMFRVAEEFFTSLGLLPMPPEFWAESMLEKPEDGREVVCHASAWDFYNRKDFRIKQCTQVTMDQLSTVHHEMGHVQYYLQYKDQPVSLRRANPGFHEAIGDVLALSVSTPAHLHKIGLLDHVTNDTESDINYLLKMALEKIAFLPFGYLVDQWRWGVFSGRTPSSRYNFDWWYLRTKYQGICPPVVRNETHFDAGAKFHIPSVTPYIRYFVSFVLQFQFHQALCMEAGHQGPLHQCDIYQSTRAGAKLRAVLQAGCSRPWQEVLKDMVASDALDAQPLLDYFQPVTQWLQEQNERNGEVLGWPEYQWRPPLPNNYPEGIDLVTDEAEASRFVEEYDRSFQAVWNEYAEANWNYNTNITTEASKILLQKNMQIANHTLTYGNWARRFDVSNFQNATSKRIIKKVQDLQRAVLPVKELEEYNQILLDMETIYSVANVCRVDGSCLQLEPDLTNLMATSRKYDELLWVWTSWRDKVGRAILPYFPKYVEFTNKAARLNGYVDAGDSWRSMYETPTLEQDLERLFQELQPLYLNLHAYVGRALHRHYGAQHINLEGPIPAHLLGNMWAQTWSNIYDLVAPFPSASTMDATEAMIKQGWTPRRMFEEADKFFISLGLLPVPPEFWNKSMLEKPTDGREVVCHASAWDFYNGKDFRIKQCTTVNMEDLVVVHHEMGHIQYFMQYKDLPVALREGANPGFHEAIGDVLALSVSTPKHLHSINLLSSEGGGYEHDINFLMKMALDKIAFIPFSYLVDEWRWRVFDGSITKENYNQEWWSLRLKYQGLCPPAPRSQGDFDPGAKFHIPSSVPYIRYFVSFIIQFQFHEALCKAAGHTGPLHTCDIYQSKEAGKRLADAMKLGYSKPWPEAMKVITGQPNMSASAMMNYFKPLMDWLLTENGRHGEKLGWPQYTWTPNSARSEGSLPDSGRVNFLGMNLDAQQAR

Digestive stability (peak of parent peptide in digested samples) ([1]; simulated gastric juice pH 2.0 and simulated intestinal fluid pH 7.6, 37°C, 2 h each, MS (TIC chromatography)): easily digested
Molecule: CC[C@H](C)[C@H](NC(=O)[C@@H](NC(=O)[C@H](CO)NC(=O)[C@H](C)NC(=O)[C@@H](N)CO)C(C)C)C(=O)N1CCC[C@H]1C(=O)N[C@H](C(=O)N[C@@H](CO)C(=O)N[C@@H](C)C(=O)N[C@H](C(=O)N[C@@H](CCCNC(=N)N)C(=O)N[C@@H](C)C(=O)O)C(C)C)C(C)C [SASVIPVSAVRA, ser-ala-ser-val-ile-pro-val-ser-ala-val-arg-ala] (H-SASVIPVSAVRA-OH)

Metabolite found in the digestion sample ([1]; digestion of SASVIPVSAVRA, simulated gastric juice pH 2.0 and intestinal fluid pH 7.6, 37°C, peak area by MS): main metabolite
Molecule: CC[C@H](C)[C@H](NC(=O)[C@@H](NC(=O)[C@H](CO)NC(=O)[C@H](C)NC(=O)[C@@H](N)CO)C(C)C)C(=O)N1CCC[C@H]1C(=O)N[C@H](C(=O)N[C@@H](CO)C(=O)N[C@@H](C)C(=O)O)C(C)C [SASVIPVSA] (H-SASVIPVSA-OH)

Molecule: C[C@H](CS)C(=O)N1CCC[C@H]1C(=O)O [captopril]
Maximum reduction of systolic blood pressure [2]: 14.9%

Molecule: IVVE
IC50 (ACE; reported peptides): 315 µM

Molecule: QLLLQQ
IC50 (ACE; reported peptides): 75 µM

Molecule: SGGSYADELVSTAK
IC50 (ACE; reported ACE peptide): 0.093 µM

IC50 of ACE inhibitory activity (substrate HHL, HEPES buffer with 300 mM NaCl, pH 8.3, 37°C, HPLC) [3]: 54.2 μM
B1: ser-ala-ser-val-ile-pro-val-ser-ala-val-arg-ala (…) (peptide)
peptide: SASVIPVSAVRA
